Test results: patent publication US20020169154A1, “Novel methods and compositions involving trk tyrosine kinase inhibitors and antineoplastic agents” (Cephalon, Inc., priority 2001, published 2002)

Tested on: human pancreatic ductal adenocarcinoma (PDAC) xenografts (Colo-357)
Test: Survival of nude mice with orthotopically implanted human PDAC xenografts
Format: in vivo
Details: orthotopic PDAC, female nu/nu mice, (I-a-ii) 10 mg/kg/dose s.c. BID five days a week, gemcitabine 100 mg/kg/dose i.p. twice per week, combination: both regimens; for mean survival time (days of dosing to death): vehicle 58, untreated 55 days
Method: The compound of formula (I-a-ii) was formulated at 3.44 mg/mil in a vehicle of 40% polyethylene glycol (PEG) 1000 (Spectrum, Los Angeles, Calif.), 10% povidone C30 (ISP, Boudbrook, N.J.), and 2% benzyl alcohol (Specturm, Los Angeles, Calif.) in sterile injectable water.
Gemcitabine HCl (Gemzar) was obtained from Eli Lilly and Co. (Indianapolis, Ind.) as a sterile, lyophilized powder formulated with mannitol and sodium acetate, and resuspended to a concentration of 1.0 mg/ml with 0.9% sodium chloride, pH 7.0. Solutions of gemcitabine were freshly prepared for each day of dosing and filter sterilized prior to administration.
Human pancreatic ductal adenocarcinoma (PDAC) xenografts were obtained from the left flanks of nude mice that had been injected with 2×10^6 Colo-357 human pancreatic carcinoma cells. Colo-357 human PDAC cells were obtained from the American Type Culture Collection (ATCC) and grown to subconfluency in Minimal Essential Medium supplemented with 10% fetal bovine serum and 1% penicillin/streptomycin. Cells were MAP and mycoplasma tested by a commercial laboratory (Bio Reliance Corp.) prior to use. Xenograft tumors were harvested and carefully sectioned into 2×2 mm^2 fragments in a laminar flow hood using sterile technique (PNAS 89:5645-49, 1992; Cancer Res. 55:4670-75, 1995). Netrotic areas of the tumors were removed and discarded. The 2×2 mm tumor tissue fragments were then placed in sterile, undiluted Matrigel and ice for 60 minutes prior to implantation. (Cancer Res. 55:4670-75, 1995).
At approximately 8 weeks of age female nu/nu mice were anesthetized with a mixture of ketamine/xylazine given by IM injection. Following establishment of satisfactory anesthesia, a left lateral laparotomy was performed using aseptic technique, and the spleen and pancreas exteriorized by gentle traction. Two of the 2×2 mm^2 tumor xenograft fragments prepared as described above were anchored to the posterior surface of the splenic portion of the pancreas of each mouse with a 6-0 Prolene suture (Cancer Res. 56:5713-19, 1996; J. Surg. Oncol. 40:261-265, 1989). The abdominal incision was closed with 6-0 Vicryl and the skin closed with skin staples. Mice were observed daily for any signs of infection of the incision line and, following removal of the skin staples, had abdominal palpation performed twice weekly. Establishment of the orthotopic phenotype with diffuse peritoneal spread was accomplished through three serial passes of tumor tissue.
Seven days following surgical implantation of serially passed PDAC tumor tissue, mice were randomized into five different treatment groups. Untreated mice (n=5) received no vehicle or drug treatments. […]

| Structure (SMILES) | survival relative to controls or monotherapy (Kaplan-Meier-Wilcoxon), in words | mean survival time (days of dosing to death) [days] |
| --- | --- | --- |
| C[C@@]12OC(C[C@@]1(O)CO)n1c3ccccc3c3c4c(c5c6ccccc6n2c5c31)CNC4=O [formula (I-a-ii)] | trend toward improved overall survival relative to administration of controls, but the trend was not significant | 63 |
| Nc1ccn([C@@H]2O[C@H](CO)[C@@H](O)C2(F)F)c(=O)n1 [gemcitabine, 2′,2′-difluorodeoxycytidine] | prolonged survival relative to the administration of controls | 97 |
